{
  "source": "patent US12268666B2",
  "about": "“Spray-dried dispersions, formulations, and polymorphs of (S)-5-amino-3-(4-((5-fluoro-2-methoxybenzamido)methyl)phenyl)-1-(1,1,1-trifluoropropan-2-yl)-1H-pyrazole-4-carboxamide” (Loxo Oncology, Inc., priority 2018, dated 2025)",
  "key": {"TMD8 cells": {"system": "TMD8 cells", "assay": "BTK-dependent proliferation of TMD8 diffuse large B-cell lymphoma cell line", "type": "cell-based", "conditions": "Homo sapiens, from AUC of real-time confluence curves, 0.1 to 1,000 nM", "method": "The TMD8 cells are maintained in RPMI 1640 (Gibco Catalog #31870-025) with 10% Fetal Calf Serum (FCS), 1% GLUTAMAX™, Non-Essential Amino-Acids and 1 mM sodium pyruvate. The cells are harvested by centrifugation (5 min, 1200 rpm) prior to reaching a concentration of 3×10^6 cells/mL. The medium is removed and cell pellet resuspended in fresh medium before counting with a Cellometer (Nexcelom). TMD8 cells are seeded at 5×10^4 cells/mL in 20 mL of culture medium in a T75 culture flask and held at 37° C. with 5% CO2.\nThe anti-proliferation activity of the compound of Formula I with TMD8 cells is accessed by the addition of increasing concentrations of inhibitor from 0.1 to 1,000 nM. A dose-dependent inhibition is observed by real-time assessment of TMD8 confluence. Individual curves for each compound of Formula I concentration are represented in the FIG. 12A."}, "[1]": {"system": "OCI-Ly10 human B-cell lymphoma cell line xenograft", "assay": "Tumor growth inhibition in OCI-Ly10 xenografts", "type": "in vivo, male NOD SCID mice", "conditions": "for tumor growth during the dosing period: oral, 28 days", "method": "A total of 65 male NOD-SCIO mice are used for the study. At the start of the study the animals are aged 6-8 weeks and weighed approximately 21-27 g. Animals are housed in IVC cages (up to 5 per cage) with individual mice identified by tail marking. All animals are allowed free access to a standard certified commercial diet and sanitized water during the study. The holding room is maintained under standard conditions: 20-24° C., 40-70% humidity and a 12 hr light/dark cycle. Animals are randomly assigned to treatment groups. OCI-Lyl0 cells are implanted subcutaneously into the flanks of male NOD SCID mice and allowed to grow to a volume of approximately 150-200 mm^3. […] The formulation used is 0.5% hydroxypropyl methylcellulose. The dosing volume is 10 mL/kg. An individual animal's dose is calculated from the bodyweight recorded on the day of dosing. Animals are dosed for 28 days. Bodyweight and health observation of animals is recorded daily for the duration of dosing.\nTumor volume is measured three times per week during the study."}, "[2]": {"assay": "Aqueous solubility at different pH values", "type": "physicochemical"}, "TMD8 tumor xenografts": {"system": "TMD8 tumor xenografts", "assay": "Tumor growth in TMD8 human diffuse large B cell lymphoma xenograft model", "type": "in vivo", "method": "The human diffuse large B cell lymphoma TMD8 cells are maintained in suspension in RPMI 1640 with 10% Fetal Calf Serum (FCS) and 1% of Glutamax. The cells are transferred to a 50 mL Falcon tube and centrifuged at 1200 rpm for 5 min. The supernatant is removed and the cell pellet resuspended in PBS before being mixed with Matrigel (1/1, v/v). The cell suspension:Matrigel mixture at a final target cell concentration of 40×10^6 cells/mL is kept on ice until the s.c. injections (250 μL/mouse) to maintain the Matrigel solution in a liquid state.\nThe animals are female BalB/c mice aged 9 weeks-old at the day of injection. The mice are housed in individually ventilated cage racks with HEPA filtered air supply and all materials that contact the immunodeficient animals are steam sterilized. This includes cages, bedding, water and feed. The animal room conditions are set as follows. The temperature is 22±2° C., and the relative humidity is 50±10%. The light/dark cycle is 12 h/12 h, and the air change rate is 12 to 15 cycles/hour of filtered, 100% fresh air. All animals had free access to sterilized water and irradiated controlled food (reference A04CSafe, Augy-France).\nThe compound of Formula I is formulated in methylcellulose/Tween80/Water (0.6%/0.5%/98.5%; w/w/v). The vehicle for the dosing of control group is methylcellulose/Tween 80/Water (0.6%/0.5%/98.5%; w/w/v), 10 mL/kg. 151.4 mg of the compound of Formula I are weighed and formulated with 50.4 mL of vehicle to obtain a solution at 3 mg/mL of free base. For the 1 mg/mL suspension preparation, 50.1 mg of the compound of Formula I are weighed and solubilized in 50.1 mL of vehicle. […]\nTumor width and length are measured with digital calipers. The tumor volume in mm^3 is calculated by the formula: Volume=0.52×(width)^2×length[…], width and length measured in mm. […]\nTumors are collected from each mouse at Day 28 post the cell injection. […] Tumor weight statistical analysis between each group is determined by a 1-way ANOVA and by 2-Way ANOVA with repeated measures for the mice weight and the tumor volume monitoring, followed by a Dunnett's test. […]"}},
  "data": [
    {"smiles": "COc1ccc(F)cc1C(=O)NCc1ccc(-c2nn([C@@H](C)C(F)(F)F)c(N)c2C(N)=O)cc1", "note": "[compound of Formula I, (S)-5-amino-3-(4-((5-fluoro-2-methoxybenzamido)methyl)phenyl)-1-(1,1,1-trifluoropropan-2-yl)-1H-pyrazole-4-carboxamide]", "values": [
      {"measurement": "IC50", "setting": "TMD8 cells", "value": 2.33, "unit": "nM"},
      {"measurement": "tumor growth during the dosing period", "setting": "[1]; 10 mg/kg BID", "value": "inhibition of tumor growth"},
      {"measurement": "tumor size compared with ibrutinib-treated animals", "setting": "[1]; 10 mg/kg BID, p=0.0008, ANOVA with Tukey post-hoc test", "value": "significantly smaller than those from animals treated with ibrutinib"},
      {"measurement": "tumor growth during the dosing period", "setting": "[1]; 50 mg/kg BID", "value": "inhibition of tumor growth"},
      {"measurement": "tumor size compared with ibrutinib-treated animals", "setting": "[1]; 50 mg/kg BID, p<0.0001, ANOVA with Tukey post-hoc test", "value": "significantly smaller than those from animals treated with ibrutinib"},
      {"measurement": "tumor growth after dosing had stopped", "setting": "[1]; after the 28-day dosing period", "value": "maintained even after dosing had stopped"},
      {"measurement": "solubility", "setting": "[2]; aqueous solution, aqueous buffer, between pH 1 to pH 10", "value": "14 to 17", "unit": "µg/mL"},
      {"measurement": "solubility", "setting": "[2]; aqueous solution, aqueous buffer, pH 3, actual media pH 3.03", "value": 14, "unit": "µg/mL"},
      {"measurement": "solubility", "setting": "[2]; aqueous solution, aqueous buffer, pH 4, actual media pH 4.04", "value": 14, "unit": "µg/mL"},
      {"measurement": "solubility", "setting": "[2]; aqueous solution, aqueous buffer, pH 6, actual media pH 6.04", "value": 14, "unit": "µg/mL"},
      {"measurement": "solubility", "setting": "[2]; aqueous solution, aqueous buffer, pH 8, actual media pH 8.02", "value": 14, "unit": "µg/mL"},
      {"measurement": "solubility", "setting": "[2]; aqueous solution, aqueous buffer, pH 10, actual media pH 9.98", "value": 14, "unit": "µg/mL"},
      {"measurement": "solubility", "setting": "[2]; aqueous solution, simulated gastric fluid, pH 1.5, actual media pH 1.49", "value": 15, "unit": "µg/mL"},
      {"measurement": "solubility", "setting": "[2]; aqueous solution, simulated gastric fluid, pH 2, actual media pH 2.06", "value": 15, "unit": "µg/mL"},
      {"measurement": "solubility", "setting": "[2]; simulated gastric fluid, (0.1 N HCl) pH 1, actual media pH 1.09", "value": 17, "unit": "µg/mL"},
      {"measurement": "TGI vs the vehicle treated group", "setting": "TMD8 tumor xenografts; 10 mg/kg oral BID for 14 days", "value": 35, "unit": "%"},
      {"measurement": "TGI vs the vehicle treated group", "setting": "TMD8 tumor xenografts; 30 mg/kg oral BID for 14 days", "value": 87, "unit": "%"},
      {"measurement": "tolerability", "setting": "TMD8 tumor xenografts; chronic oral BID administration for 14 days at 10 and 30 mg/kg", "value": "well tolerated"}
    ]}
  ]
}
